According to article PMC12295927, “Design, Synthesis, and Testing of 1,2,3-Triazolo-Quinobenzothiazine Hybrids for Cytotoxic and Immunomodulatory Activity” (International Journal of Molecular Sciences, 2025):

Legend:
[1] = system: HCT116 cells; experiment: DAPI staining for nuclear morphology and apoptosis, HCT116; type: cell-based, Human; conditions: HCT116, 100 μM, 24 h
Procedure: The BEAS-2B, NHDF, HCT116, MCF7, SH-SY5Y, A549 cell lines studied were cultured in DMEM medium supplemented with 10% fetal bovine serum (FBS) and 1% penicillin/streptomycin solution. Cells were seeded at 1 × 10^4 per well in 96-well plates and incubated for 24 h under standard culture conditions: temperature 37 °C, 5% CO2, 95% humidity. After 24 h, compounds from the MJ1–MJ20 group were added to individual wells at different concentrations (6.25 µM, 12.5 µM, 25 µM, 50 µM, 100 µM). The control consisted of cells grown only in medium without the addition of chemical compounds. After 24 h of incubation, cells were observed under a microscope (JuLI™ FL Live fluorescence microscope from NanoEntek, Martinsried, Germany), documenting morphological changes. Observations included visual assessments of confluence, cell shape, arrangement, and interaction with the substrate. The Supplementary Materials include a comprehensive collection of microscopic images showing the morphology of the tested cell lines (BEAS-2B, NHDF, HCT116, MCF7, SH-SY5Y, A549) after 24 h of incubation with compounds MJ1–MJ20. These images illustrate the effects of the compounds on cell shape, density, and adhesion. The images are provided as a separate PDF file for further reference. For apoptosis observations, the samples of BEAS-2B and HCT116 cells were additionally fixed with 4% paraformaldehyde (PFA) after 24 h of incubation with, or without selected compounds (Section 2.6) and DAPI stained for apoptotic bodies visualization (Fluoromount-G™ medium with DAPI dye; Thermo Fisher Scientific, Waltham, MA, USA). The samples were visualized using fluorescent microscopy AXIO IMAGER M1 by ZEISS, DAPI channel and 20x magnification. The percent of counted cells with apoptotic nucleus was defined in comparison to all visualized events.
BEAS-2B and HCT116 cells were seeded into culture plates at 5 × 10^3 cells per well using 0.5 mL of RPMI-1640 medium (for BEAS-2B) or DMEM (for HCT116). The plates were incubated for 24 h at 37 °C in an atmosphere containing 5% CO2. After incubation, the medium was removed and compounds MJ2, MJ8, MJ15, and MJ19 were added in the appropriate medium at a concentration of 100 μM. The plates were incubated for 24 h at 37 °C in an atmosphere containing 5% CO2. After incubation, the medium was removed, and 500 µL of 4% paraformaldehyde (PFA) was added to each well to fix the cells. Incubation continued for 10 min at room temperature. After removal of the PFA, the wells were rinsed with 500 µL of PBS (5 min of incubation) and then with distilled water. The cells were allowed to dry at room temperature. After drying, the cells were stained with DAPI. Observations were made using a fluorescence microscope AXIO IMAGER M1 by ZEISS at 20x magnification.

[2] = system: IL8 gene; experiment: RT-qPCR IL8 gene expression in BEAS-2B; type: cell-based; conditions: Homo sapiens, 24 h, reference gene RPL41, vs untreated control, read-out: Relative level of expression, IL8 gene
Procedure: (§1) Real-time polymerase chain reaction was performed for the reference gene RPL41 (ribosomal protein L41) and the tested genes: BCL2, AIFM2, MDM2, IL6 and IL8. […] The BEAS-2B line was selected for the experiment. The expression level of selected genes was measured after 24 h of incubation with the tested substances MJ1–MJ20 at a concentration of 100 μM (Table 3).
The RT-qPCR experiment was performed for the BEAS-2B cell line. In this experiment, the IL6 and IL8 genes were studied and RPL41 was used as a reference gene (Figure 17 and Figure 18).
(§2) Gene expression studies used quantitative RT-qPCR to assess the effect of the tested quinobenzothiazines (MJ1–MJ20) on the expression of apoptosis-related genes (BCL2, AIFM2, MDM2) and pro-inflammatory cytokines (IL6, IL8) (Table 4).
(§3) BEAS-2B and HCT116 cells were seeded in 6-well plates at 2 × 10^5 cells per well and cultured in RPMI-1640 (BEAS-2B) or DMEM (HCT116) medium supplemented with 10% FBS and 1% penicillin/streptomycin at 37 °C, 5% CO2 and 95% humidity. After 24 h of incubation, the tested compounds were added at a concentration of 100 µM. After 24 h, the medium was removed from the cells, washed with PBS solution, 0.5 mL of trypsin was added per well and after 5 min it was neutralized with medium. The obtained cell suspension was centrifuged for 3 min at 2000 rpm, the supernatant was removed, and the obtained pellet was suspended in 400 µL of phenozol. Samples were frozen at −20 °C and stored until further experiment and RNA isolation.
(§4) Total RNA was isolated from cells using the A&A Biotechnology Total RNA Mini kit according to the manufacturer’s protocol. RNA quality and quantity were assessed using a NanoDrop 2000 spectrophotometer at 260/280 nm. Reverse transcription was performed using the protocol (EURx NG dART RT Kit) to obtain cDNA. After incubation, samples were placed in a freezer (−20 °C) and stored until further analysis.
(§5) The experiment was performed according to the protocol (Brilliant III Ultra Fast SYBR® Green QPCR Master Mix, Quick Reference Guide for the Bio-Rad CFX96 Real-Time PCR Detection System). RT-qPCR reaction was performed using specific primers for target genes (BCL2, AIFM2, MDM2, IL6, IL8). Gene expression was normalized to the expression of the reference gene RPL41. Reaction profiles and results were performed using Bio-Rad CFX Maestro 1.1 software from Bio-Rad. Analysis and calculations of the results obtained during RT-qPCR were performed using Microsoft Excel.
(§6) The results were analyzed using the R = 2^−ΔΔCt method, which allows for determining the relative level of gene expression (R) compared to the control. Each experiment was performed in three technical and biological replicates. RT-qPCR allowed for precise assessment of changes in the expression of genes related to the processes of apoptosis and inflammatory response under the influence of quinobenzothiazines, which allowed for identifying their potential mechanisms of action at the molecular level.

[3] = system: MDM2 gene; experiment: RT-qPCR MDM2 gene expression in BEAS-2B; type: cell-based, Human; conditions: 24 h; for fold induction at 100 µM: Homo sapiens, reference gene RPL41, vs untreated control, read-out: Relative level of expression, MDM2 gene
Procedure: as §1
The RT-qPCR experiment was performed for the BEAS-2B cell line. In this experiment, the MDM2 gene was studied and RPL41 was used as reference gene (Figure 15).
as §2, §3, §4, §5, §6

Clc1ccc2c(c1)Sc1cc3ccccc3nc1N2Cc1cn(CSc2ccccc2)nn1 [MJ15, 9-Chloro-6-((1-((phenylthio)methyl)-1H-1,2,3-triazol-4-yl)methyl)-quino[3,2-b]benzo[1,4]thiazine]
Apoptotic changes in cell nuclei (DAPI) [1]: no significant apoptotic changes
fold induction at 100 µM [2]: 5
fold induction at 100 µM [3]: 6.4

CSc1ccc2c(c1)Sc1cc3ccccc3nc1N2Cc1cn(Cc2ccc(C#N)cc2)nn1 [MJ19, 4-((4-((9-Methylthioquino[3,2-b]benzo[1,4]thiazin-6-yl)methyl)-1H-1,2,3-triazol-1-yl)methyl)benzonitrile]
Apoptotic changes in cell nuclei (DAPI) [1]: no significant apoptotic changes
fold induction at 100 µM [2]: 12.8
MDM2 expression increase ([3]; 100 μM, compared to control): 10.3 fold
fold induction at 100 µM [3]: 10.3

Fc1ccc2c(c1)Sc1cc3ccccc3nc1N2Cc1cn(Cc2ccc(Cl)cc2)nn1 [MJ8, 9-Fluoro-6-[(1-(4-chlorobenzyl)-1H-1,2,3-triazol-4-yl)methyl]-quino[3,2-b]benzo-[1,4]thiazine]
Apoptotic changes in cell nuclei (DAPI) [1]: no significant apoptotic changes
fold induction at 100 µM [2]: 4
fold induction at 100 µM [3]: 8.1

Fc1ccc(Cn2cc(CN3c4ccccc4Sc4cc5ccccc5nc43)nn2)cc1 [MJ2, 6-((1-(4-Fluorobenzyl)-1H-1,2,3-triazol-4-yl)methyl)-quino[3,2-b]benzo[1,4]thiazine]
Apoptotic changes in cell nuclei (DAPI) [1]: no significant apoptotic changes
fold induction at 100 µM [2]: 0.4
fold induction at 100 µM [3]: 6.3
